In brackets after ≈: the same amount, converted by molar mass. Like-named read-outs stand apart in the source and are kept apart here.
Tests used:
[1] = test system: P. aeruginosa ATCC 9027; experiment: Antibacterial activity, pre-exposure; format: cell-based, Pseudomonas aeruginosa; conditions: for Average inhibition %, biofilms viability / Average inhibition %, planktonic cells viability / inhibition at 50 µM / inhibition at 100 µM / inhibition at 150 µM / inhibition at 200 µM: P. aeruginosa ATCC 9027, pre-exposure, ± SD; for MIC / inhibition at 50 µM / inhibition at 100 µM / inhibition at 150 µM / inhibition at 200 µM: Pseudomonas aeruginosa; for inhibition at 50 µM / inhibition at 100 µM / inhibition at 150 µM / inhibition at 200 µM: ATCC9027
Procedure, shortened: (§1)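 Pre-exposure format: compound and bacterial culture co-incubated 18 h, 37 °C, aerobic, 220 rpm. Planktonic: turbidity (OD) plus resazurin viability, 20 μM final. Biofilm: PBS wash, 20 μM resazurin, then ethanol fixation and crystal violet staining, A595.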

[2] = test system: A. baumannii NCTC 13423; experiment: Antibacterial activity, pre-exposure; format: cell-based, Acinetobacter baumannii; conditions: for Average inhibition %, biofilms viability / Average inhibition %, planktonic cells viability / inhibition at 10 µM / inhibition at 15 µM / inhibition at 25 µM / inhibition at 50 µM: A. baumannii NCTC 13423, pre-exposure, ± SD; for inhibition at 10 µM / inhibition at 15 µM / inhibition at 25 µM / inhibition at 50 µM / MIC: Acinetobacter baumannii, NCTC13423
Procedure, shortened: as §1

[3] = test system: S. aureus ATCC 25923; experiment: Antibacterial activity, post-exposure on preformed 18-h-old biofilms; format: cell-based, Staphylococcus aureus; conditions: for Average inhibition %, biofilms viability / Average inhibition %, planktonic cells viability / inhibition at 25 µM / inhibition at 50 µM / inhibition at 100 µM / inhibition at 200 µM: ± SD; for inhibition at 25 µM / inhibition at 50 µM / inhibition at 100 µM / inhibition at 200 µM: Staphylococcus aureus; for inhibition at 25 µM: ATCC25923, 25 µM; for inhibition at 50 µM: ATCC25923, 50 µM; for inhibition at 100 µM: ATCC25923, 100 µM; for inhibition at 200 µM: ATCC25923, 200 µM
Procedure, shortened: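 Compounds were applied to preformed 18-h biofilms after medium change and left 24 h. Read-outs: planktonic OD plus resazurin fluorescence (20 μM), biofilm metabolic activity by resazurin 30 min at 37 °C, then biomass by crystal violet absorbance at 595 nm after ethanol fixation.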

[4] = test system: S. aureus ATCC 25923; experiment: Antibacterial activity, pre-exposure (planktonic cells and biofilm formation); format: cell-based, Staphylococcus aureus; conditions: for MIC / inhibition at 5 µM / inhibition at 10 µM / inhibition at 15 µM / inhibition at 25 µM: Staphylococcus aureus, ATCC25923; for inhibition at 5 µM / inhibition at 10 µM / inhibition at 15 µM / inhibition at 25 µM / Average inhibition %, biofilms viability / Average inhibition %, planktonic cells viability: pre-exposure, ± SD
Procedure, shortened: as §1

[5] = 50 µM, read-out: Average inhibition %, biofilms biomass
[6] = 50 µM, read-out: Average inhibition %, planktonic cells turbidity
[7] = 10 µM, read-out: Average inhibition %, biofilms biomass
[8] = 10 µM, read-out: Average inhibition %, planktonic cells turbidity
[9] = 15 µM, read-out: Average inhibition %, biofilms biomass
[10] = 15 µM, read-out: Average inhibition %, planktonic cells turbidity
[11] = 25 µM, read-out: Average inhibition %, biofilms biomass
[12] = 25 µM, read-out: Average inhibition %, planktonic cells turbidity
[13] = read-out: Average inhibition %, biofilms biomass
[14] = read-out: Average inhibition %, planktonic cells turbidity

Compound: CCCCCCCCc1ccc(CC(N)(CO)CO)cc1 [Compound 44, 2-Amino-2-(4-octylbenzyl)propane-1,3-diol]
- Average inhibition %, biofilms viability ([1]; 50 µM): 9 ± 8%
- Average inhibition %, planktonic cells viability ([1]; 50 µM): 31.4 ± 12.8%
- Average inhibition %, biofilms viability ([1]; 100 µM): 43 ± 44.4%
- Average inhibition %, planktonic cells viability ([1]; 100 µM): 95.8 ± 3.5%
- Average inhibition %, biofilms viability ([1]; 150 µM): 42.2 ± 50.3%
- Average inhibition %, planktonic cells viability ([1]; 150 µM): 92.1 ± 9.3%
- Average inhibition %, biofilms viability ([1]; 200 µM): 34.5 ± 36.6%
- Average inhibition %, planktonic cells viability ([1]; 200 µM): 88.7 ± 10.2%
- MIC ([1]; ATCC9027, pre-exposure, Inactive = no activity up to 200 μM, > = some inhibition but no MIC reached, read-out: MIC P. aeruginosa ATCC 9027): > 200 µM
- MIC ([1]; ATCC9027, supplementary molecular formula strings sheet, read-out: MIC (P. aeruginosa)): > 200 µM
- inhibition at 50 µM [1, 5]: 35.2 ± 19.9%
- inhibition at 50 µM [1, 6]: 28.4 ± 10.9%
- inhibition at 100 µM ([1]; 100 µM, read-out: Average inhibition %, biofilms biomass): 57.7 ± 30.4%
- inhibition at 100 µM ([1]; 100 µM, read-out: Average inhibition %, planktonic cells turbidity): 93.7 ± 2.6%
- inhibition at 150 µM ([1]; 150 µM, read-out: Average inhibition %, biofilms biomass): 54.7 ± 35.2%
- inhibition at 150 µM ([1]; 150 µM, read-out: Average inhibition %, planktonic cells turbidity): 92.2 ± 4.8%
- inhibition at 200 µM ([1]; 200 µM, read-out: Average inhibition %, biofilms biomass): 48.7 ± 28.5%
- inhibition at 200 µM ([1]; 200 µM, read-out: Average inhibition %, planktonic cells turbidity): 88.5 ± 4.4%
- Average inhibition %, biofilms viability ([2]; 10 µM): 0.6 ± 1%
- Average inhibition %, planktonic cells viability ([2]; 10 µM): 12.3 ± 2.4%
- Average inhibition %, biofilms viability ([2]; 15 µM): 8.6 ± 7.8%
- Average inhibition %, planktonic cells viability ([2]; 15 µM): 9.2 ± 5.8%
- Average inhibition %, biofilms viability ([2]; 25 µM): 88.7 ± 15.2%
- Average inhibition %, planktonic cells viability ([2]; 25 µM): 83.5 ± 27.6%
- Average inhibition %, biofilms viability ([2]; 50 µM): 99.9 ± 1%
- Average inhibition %, planktonic cells viability ([2]; 50 µM): 99.8 ± 0.5%
- inhibition at 10 µM [2, 7]: 0%
- inhibition at 10 µM [2, 8]: 0%
- inhibition at 15 µM [2, 9]: 5.6 ± 6.5%
- inhibition at 15 µM [2, 10]: 2.8 ± 3.7%
- inhibition at 25 µM [2, 11]: 69.4 ± 13.7%
- inhibition at 25 µM [2, 12]: 88.1 ± 19%
- inhibition at 50 µM [2, 5]: 86.2 ± 2.3%
- inhibition at 50 µM [2, 6]: 98.3 ± 1.2%
- MIC ([2]; pre-exposure, Inactive = no activity up to 50 μM, > = some inhibition but no MIC reached, read-out: MIC A. baumannii NCTC 13423): 25 to 50 µM (≈ 7.34 to 14.7 µg/mL)
- MIC ([2]; supplementary molecular formula strings sheet, read-out: MIC (A. baumannii)): 25 to 50 µM (≈ 7.34 to 14.7 µg/mL)
- Average inhibition %, biofilms viability ([3]; 25 µM): 21 ± 11.5%
- Average inhibition %, planktonic cells viability ([3]; 25 µM): 3.8 ± 6.6%
- Average inhibition %, biofilms viability ([3]; 50 µM): 38.2 ± 8.2%
- Average inhibition %, planktonic cells viability ([3]; 50 µM): 56.1 ± 15.4%
- Inhibition of viability and total biomass of preformed biofilms ([3]; 100 μM): at least 70%
- Average inhibition %, biofilms viability ([3]; 100 µM): 74 ± 21.5%
- Average inhibition %, planktonic cells viability ([3]; 100 µM): 99.8 ± 0.6%
- Average inhibition %, biofilms viability ([3]; 200 µM): 98.5 ± 0.1%
- Average inhibition %, planktonic cells viability ([3]; 200 µM): 100.1 ± 0.1%
- inhibition at 25 µM [3, 13]: 36 ± 3.3%
- inhibition at 25 µM [3, 14]: 6.1 ± 10.6%
- inhibition at 50 µM [3, 13]: 51.6 ± 10.7%
- inhibition at 50 µM [3, 14]: 58.6 ± 10.2%
- inhibition at 100 µM [3, 13]: 70.5 ± 19.2%
- inhibition at 100 µM [3, 14]: 84.7 ± 3.3%
- inhibition at 200 µM [3, 13]: 92 ± 1.2%
- inhibition at 200 µM [3, 14]: 85.9 ± 5.3%
- MIC ([4]; lowest concentration with no visible growth (>90% inhibition of turbidity and viability of planktonic cells), 18 h, read-out: MIC S. aureus ATCC 25923): 15 to 25 µM (≈ 4.4 to 7.34 µg/mL)
- inhibition at 5 µM ([4]; 5 µM, read-out: Average inhibition %, biofilms biomass): 23.2 ± 23.4%
- inhibition at 5 µM ([4]; 5 µM, read-out: Average inhibition %, planktonic cells turbidity): 18.4 ± 6.2%
- inhibition at 10 µM [4, 7]: 36.6 ± 27.8%
- inhibition at 10 µM [4, 8]: 31.2 ± 8.9%
- inhibition at 15 µM [4, 9]: 76.6 ± 21.5%
- inhibition at 15 µM [4, 10]: 79.2 ± 28.2%
- inhibition at 25 µM [4, 11]: 93.1 ± 4.2%
- inhibition at 25 µM [4, 12]: 99.1 ± 0.7%
- MIC ([4]; read-out: MIC (S. aureus)): 15 to 25 µM (≈ 4.4 to 7.34 µg/mL)
- Average inhibition %, biofilms viability ([4]; 5 µM): 24.9 ± 12.6%
- Average inhibition %, planktonic cells viability ([4]; 5 µM): 0 ± 0%
- Average inhibition %, biofilms viability ([4]; 10 µM): 44.4 ± 4.9%
- Average inhibition %, planktonic cells viability ([4]; 10 µM): 0 ± 0%
- Average inhibition %, biofilms viability ([4]; 15 µM): 76.2 ± 29.5%
- Average inhibition %, planktonic cells viability ([4]; 15 µM): 66.8 ± 54.1%
- Average inhibition %, biofilms viability ([4]; 25 µM): 99.7 ± 0%
- Average inhibition %, planktonic cells viability ([4]; 25 µM): 100 ± 0.2%
